Bridge positions count the residues as written; N and C are the ends. Square brackets hold non-standard residues; d marks the D form. Peptide text beside a SMILES is read from it. S8 = C=CCCCCCC[C@](C)(N)C(=O)O; R5 = C=CCCC[C@@](C)(N)C(=O)O
Legend:
[1] = system: Caspase 3; experiment: Caspase 3 detection assay in SJSA1 cells; format: cell-based; conditions: SJSA1, 48 h, Caspase 3 activation over DMSO-treated cells
[2] = system: RKO; experiment: Cell viability assay (MTT), RKO; conditions: read-out: RKO EC50 (72 h)
[3] = system: SJSA-1; experiment: Cell viability assay (MTT), SJSA-1; conditions: read-out: SJSA-1 EC50 (72 h); 72 h, MTT
[4] = system: SJSA-1 cells; experiment: Cell lysis by peptidomimetic macrocycles (LDH release); format: cell-based; conditions: SJSA-1, 1 h
Procedure, shortened: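 SJSA-1 cells plated the day before, switched to RPMI with 1% FBS, then exposed 1 h at 37 °C to macrocycle at final 50 μM to 6.25 μM in 0.5% DMSO. LDH released into the supernatant was measured by kit. Controls: 0.5% DMSO (non-lytic), 10 μM melittin and 1% Triton X-100 (lytic).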

CC[C@H](C)[C@H](NC(=O)[C@H](C)NC(=O)[C@H](C)NC(=O)[C@]1(C)CCCC=CCCCCCC[C@@](C)(NC(=O)[C@H](Cc2ccccc2)NC(=O)[C@@H](NC(=O)[C@H](CC(C)C)NC(C)=O)[C@@H](C)O)C(=O)N[C@@H](C)C(=O)N[C@@H](Cc2ccc(O)cc2)C(=O)N[C@@H](Cc2c[nH]c3ccccc23)C(=O)N[C@@H](C)C(=O)N[C@@H](CCC(N)=O)C(=O)N[C@@H](CC(C)C)C(=O)N1)C(=O)N[C@H](C)C(N)=O (single isomer, unassigned) [compound 70] was tested, and the “caspase 3 μM” value [1] was 1, the “caspase 10 μM” value [1] was 9 and the “caspase 30 μM” value [1] was 26. The EC50 [2] was under 5 µM and the EC50 [3] was under 5 µM.
In the case of CC(=O)N[C@@H](CC(C)C)C(=O)N[C@H](C(=O)N[C@@H](Cc1ccccc1)C(=O)N[C@]1(C)CCCCCCC=CCCC[C@@](C)(C(=O)N[C@@H](C)C(=O)N[C@H](C)C(=O)N[C@@H](C)C(=O)N[C@@H](C)C(=O)N[C@@H](C)C(=O)N[C@H](C)C(N)=O)NC(=O)[C@H](CC(C)C)NC(=O)[C@H](CCC(N)=O)NC(=O)[C@H](C)NC(=O)[C@H](Cc2c[nH]c3ccccc23)NC(=O)[C@H](Cc2ccc(O)cc2)NC(=O)[C@H](CCC(=O)O)NC1=O)[C@@H](C)O [compound 568], the EC50 [3] is reported as 5 to 15 µM.
Work on CCCC[C@H](NC(=O)[C@H](C)NC(=O)[C@H](C)NC(=O)[C@]1(C)CCCC=CCCCCCC[C@@](C)(NC(=O)[C@H](Cc2ccccc2)NC(=O)[C@@H](NC(=O)[C@H](CC(C)C)NC(C)=O)[C@@H](C)O)C(=O)N[C@@H](C)C(=O)N[C@@H](Cc2ccc(O)cc2)C(=O)N[C@@H](Cc2c[nH]c3ccccc23)C(=O)N[C@@H](C)C(=O)N[C@@H](CCC(N)=O)C(=O)N[C@@H](CC(C)C)C(=O)N1)C(=O)N[C@H](C)C(N)=O (single isomer, unassigned) [compound 74] yielded an EC50 [3] of under 5 µM.
For CC(=O)N[C@@H](CC(C)C)C(=O)N[C@H](C(=O)N[C@@H](Cc1ccccc1)C(=O)N[C@]1(C)CCCCCC/C=C/CCC[C@@](C)(C(=O)N[C@@H](C)C(=O)N[C@@H](C)C(=O)N[C@@H](C)C(=O)N[C@@H](C)C(=O)N[C@H](C)C(=O)N[C@H](C)C(N)=O)NC(=O)[C@H](CC(C)C)NC(=O)[C@H](CCC(N)=O)NC(=O)[C@H](C)NC(=O)[C@H](Cc2c[nH]c3ccccc23)NC(=O)[C@H](Cc2ccc(O)cc2)NC(=O)[C@H](CCC(=O)O)NC1=O)[C@@H](C)O [compound 572], the EC50 [3] was under 5 µM.
CCCC[C@H](NC(=O)[C@H](C)NC(=O)[C@H](C)NC(=O)[C@]1(C)CCCC=CCCCCCC[C@@](C)(NC(=O)[C@H](Cc2ccccc2)NC(=O)[C@@H](NC(=O)[C@H](CC(C)C)NC(C)=O)[C@@H](C)O)C(=O)N[C@@H](C)C(=O)N[C@@H](Cc2ccc(O)cc2)C(=O)N[C@@H](Cc2c[nH]c3ccccc23)C(=O)N[C@@H](C)C(=O)N[C@@H](CCC(N)=O)C(=O)N[C@@H](CC(C)C)C(=O)N1)C(=O)N[C@@H](C)C(N)=O (single isomer, unassigned) [compound 68] gave an EC50 [3] of under 5 µM.
With CC[C@H](C)[C@H](NC(=O)[C@H](C)NC(=O)[C@H](C)NC(=O)[C@]1(C)CCCCCCC=CCCC[C@@](C)(NC(=O)[C@H](Cc2ccccc2)NC(=O)[C@@H](NC(=O)[C@H](CC(C)C)NC(C)=O)[C@@H](C)O)C(=O)N[C@@H](C)C(=O)N[C@@H](Cc2ccc(O)cc2)C(=O)N[C@@H](Cc2c[nH]c3ccccc23)C(=O)N[C@@H](C)C(=O)N[C@@H](CCC(N)=O)C(=O)N[C@@H](CC(C)C)C(=O)N1)C(=O)N[C@H](C)C(N)=O [compound 234] the EC50 [3] was under 5 µM.
CC(=O)N[C@@H](CC(C)C)C(=O)N[C@H](C(=O)N[C@@H](Cc1ccccc1)C(=O)N[C@]1(C)CCCCCCC=CCCC[C@@](C)(C(=O)N[C@@H](C)C(=O)N[C@@H](C)C(=O)N[C@H](C)C(=O)N[C@@H](C)C(=O)N[C@@H](C)C(=O)N[C@H](C)C(N)=O)NC(=O)[C@H](CC(C)C)NC(=O)[C@H](CCC(N)=O)NC(=O)[C@H](C)NC(=O)[C@H](Cc2c[nH]c3ccccc23)NC(=O)[C@H](Cc2ccc(O)cc2)NC(=O)[C@H](CCC(=O)O)NC1=O)[C@@H](C)O [compound 569] gave an EC50 [3] of under 5 µM.
For CC[C@H](C)[C@H](NC(=O)[C@H](C)NC(=O)[C@H](C)NC(=O)[C@]1(C)CCCC=CCCCCCC[C@@](C)(NC(=O)[C@H](Cc2ccccc2)NC(=O)[C@@H](NC(=O)[C@H](CC(C)C)NC(C)=O)[C@@H](C)O)C(=O)N[C@@H](C)C(=O)N[C@@H](Cc2ccc(O)cc2)C(=O)N[C@@H](Cc2c[nH]c3ccccc23)C(=O)N[C@@H](C)C(=O)N[C@@H](CCC(N)=O)C(=O)N[C@@H](CC(C)C)C(=O)N1)C(=O)N[C@@H](C)C(N)=O (single isomer, unassigned) [compound 65], the “caspase 0.3 μM” value [1] was 1, the “caspase 3 μM” value [1] was 6 and the “caspase 10 μM” value [1] was 28. For the same compound, the “caspase 30 μM” value [1] was 34, the “6.25 μM % Lysed cells (1 h LDH)” value [4] was 0% and the “25 μM % Lysed cells (1 h LDH)” value [4] was 0%. The “50 μM % Lysed cells (1 h LDH)” value [4] was 2%, the EC50 [2] was 5 to 15 µM and the EC50 [3] was under 5 µM.
Work on CC(=O)N[C@@H](CC(C)C)C(=O)N[C@H](C(=O)N[C@@H](Cc1ccccc1)C(=O)N[C@]1(C)CCCCCCC=CCCC[C@@](C)(C(=O)N[C@@H](C)C(=O)N[C@@H](C)C(=O)N[C@@H](C)C(=O)N[C@@H](C)C(=O)N[C@@H](C)C(=O)N[C@H](C)C(N)=O)NC(=O)[C@H](CC(C)C)NC(=O)[C@H](CCC(N)=O)NC(=O)[C@H](C)NC(=O)[C@H](Cc2c[nH]c3ccccc23)NC(=O)[C@H](Cc2ccc(O)cc2)NC(=O)[C@H](CCC(=O)O)NC1=O)[C@@H](C)O (single isomer, unassigned) [compound 449] yielded an EC50 [3] of under 5 µM.
CC(=O)N[C@@H](CC(C)C)C(=O)N[C@H](C(=O)N[C@@H](Cc1ccccc1)C(=O)N[C@]1(C)CCCC=CCCCCCC[C@@](C)(C(=O)N[C@@H](C)C(=O)N[C@@H](C)C(=O)N[C@@H](C)C(=O)N[C@@H](C)C(=O)N[C@@H](C)C(=O)N[C@H](C)C(N)=O)NC(=O)[C@H](CC(C)C)NC(=O)[C@H](CCC(N)=O)NC(=O)[C@H](C)NC(=O)[C@H](Cc2c[nH]c3ccccc23)NC(=O)[C@H](Cc2ccc(O)cc2)NC(=O)[C@H](CCC(=O)O)NC1=O)[C@@H](C)O [compound 631] (Ac-LTF[R5]EYWAQL[S8]AAAAA[dA]-NH2; staple 4-11) showed an EC50 [3] of under 5 µM.
In the case of CC(=O)N[C@@H](CC(C)C)C(=O)N[C@H](C(=O)N[C@@H](Cc1ccccc1)C(=O)N[C@]1(C)CCCCCC/C=C/CCC[C@@](C)(C(=O)N[C@@H](C)C(=O)N[C@@H](C)C(=O)N[C@@H](C)C(=O)N[C@@H](C)C(=O)N[C@@H](C)C(=O)N[C@@H](C)C(N)=O)NC(=O)[C@H](CC(C)C)NC(=O)[C@H](CCC(N)=O)NC(=O)[C@H](C)NC(=O)[C@H](Cc2c[nH]c3ccccc23)NC(=O)[C@H](Cc2ccc(O)cc2)NC(=O)[C@H](CCC(=O)O)NC1=O)[C@@H](C)O [compound 573], the EC50 [3] is reported as under 5 µM.
CC(=O)N[C@@H](CC(C)C)C(=O)N[C@H](C(=O)N[C@@H](Cc1ccccc1)C(=O)N[C@]1(C)CCCCCCC=CCCC[C@@](C)(C(=O)N[C@@H](C)C(=O)N[C@@H](C)C(=O)N[C@@H](C)C(=O)N[C@@H](C)C(=O)N[C@@H](C)C(=O)N[C@H](C)C(N)=O)NC(=O)[C@H](CC(C)C)NC(=O)[C@H](CCC(N)=O)NC(=O)[C@H](C)NC(=O)[C@H](Cc2c[nH]c3ccccc23)NC(=O)[C@H](Cc2ccc(O)cc2)NC(=O)[C@H](CCC(=O)O)NC1=O)[C@@H](C)O (single isomer, unassigned) [compound 579] showed an EC50 [3] of under 5 µM.
In the case of CC(=O)N[C@@H](CC(C)C)C(=O)N[C@H](C(=O)N[C@@H](Cc1ccccc1)C(=O)N[C@]1(C)CCCCCC/C=C/CCC[C@@](C)(C(=O)N[C@@H](C)C(=O)N[C@@H](C)C(=O)N[C@@H](C)C(=O)N[C@@H](C)C(=O)N[C@@H](C)C(=O)N[C@H](C)C(N)=O)NC(=O)[C@H](CC(C)C)NC(=O)[C@H](CCC(N)=O)NC(=O)[C@H](C)NC(=O)[C@H](Cc2c[nH]c3ccccc23)NC(=O)[C@H](Cc2ccc(O)cc2)NC(=O)[C@H](CCC(=O)O)NC1=O)[C@@H](C)O [compound 331], the “caspase 0.3 μM” value [1] is reported as 4.5, the “caspase 1 μM” value ([1]; 1 μM) is reported as 8 and the “caspase 3 μM” value [1] is reported as 11. For the same compound, the “caspase 10 μM” value [1] was 14.5, the “caspase 30 μM” value [1] was 30.5 and the “6.25 μM % Lysed cells (1 h LDH)” value [4] was 0%. The “25 μM % Lysed cells (1 h LDH)” value [4] was 0%, the “50 μM % Lysed cells (1 h LDH)” value [4] was 0% and the EC50 [2] was under 5 µM. For the same compound, the EC50 [3] was under 5 µM.
With CCCC[C@H](NC(=O)[C@H](C)NC(=O)[C@H](C)NC(=O)[C@]1(C)CCCC=CCCCCCC[C@@](C)(NC(=O)[C@H](Cc2ccccc2)NC(=O)[C@@H](NC(=O)[C@H](CC(C)C)NC(C)=O)[C@@H](C)O)C(=O)N[C@@H](C)C(=O)N[C@@H](Cc2ccc(O)cc2)C(=O)N[C@@H](Cc2c[nH]c3ccccc23)C(=O)N[C@@H](C)C(=O)N[C@@H](CCC(N)=O)C(=O)N[C@@H](CC(C)C)C(=O)N1)C(=O)N[C@H](C)C(N)=O (single isomer, unassigned) [compound 75] the “6.25 μM % Lysed cells (1 h LDH)” value [4] was −1%, the “25 μM % Lysed cells (1 h LDH)” value [4] was 1% and the “50 μM % Lysed cells (1 h LDH)” value [4] was 1%. The EC50 [3] was under 5 µM.

— patent publication US20200369728A1, “PEPTIDOMIMETIC MACROCYCLES AND USES THEREOF” (Aileron Therapeutics, Inc., priority 2015, published 2020)
